Data reported in US6348614B1 (priority 1996, dated 2002).
Like-named read-outs stand apart in the source and are kept apart here.

How the values were obtained:
Phytophthora infestans [1] = assay type: in vivo; details: Tomato, 500 ppm, 7 days after inoculation
[2] = tested on: Pseudoperonospora cubensis; experiment: Downy mildew in cucumber (Table 8); details: 500 ppm, 7 days after inoculation
Procedure: Cucumber plants (cv,Dlila) and melon plants (cv.Ein Dor) were raised from seeds in 0.2 liter pots in the greenhouse. At 3 weeks after sowing when had 3 true leaves they were inoculated with sporangial suspension (1000 sporangia/ml) of P.cubensis (resistant to metalaxyl) and placed in 100% relative humidity in the dark for 20 hr. They were then place in a 20° C. growth cabinet for 7 days and assessed for disease development. Percentage leaf area covered with disease symptoms was evaluated and control efficacy was calculated relative to control inoculated plants.

Phytophthora infestans [3] = details: applied to leaves of tomato; cited from earlier work
Venturia inaequalis = details: 0.03 M; cited from earlier work
cladosporium cucumerinum = details: cited from earlier work
[4] = tested on: Erysiphe graminis tritici; experiment: Powdery mildew in wheat, additional examples (Table 6); assay type: in vivo; details: 500 ppm, 7 days after inoculation
Procedure: Wheat plants (cv.Shafir) were raised from seed in the greenhouse, 30 plants per 0.2 liter pot. When the first leaf was fully developed plants were sprayed with the test solutions and placed in a 20° C. growth cabinet. Two days after spraying plants were dusted with conidia of E. graminis tritict so that about 100 spores were settled on 1 cm^2 of leaf area (both surfaces). […] Control efficacy was calculated relative to number of colonies developed on the control-inoculated untreated plants.

Phytophthora infestans [5] = assay type: in vivo
Phytophthora infestans [6] = assay type: in vivo; remark: listed apart in the source
Erysiphe graminis hordei = experiment: Powdery mildew in barley (Table 5)
Excerpt: (§1) For the following experiments we have used 10-days old potted wheat plants (Triticum asetivum cultivar Atir) and barley plants (Hhordeum vulgaris cultivar Amidon).
(§2) Plants were sprayed with the test compounds and two days lated were inoculated with the powdery mildew fungal pathogens. Wheat was inoculated with Erysiphe granims tritici. Barley was inoculated with the powdery Erysiphe granims hordei.
(§3) Inoculation was done by shaking infected donor plants harboring abundant conidia over the treated plants. Untreated plants were also inoculated as controls. Inoculated plants were placed in a growth chamber at 20-22C with 1 rhr photoperioed and 50-60% RH. At 9-10 days after inoculation disease intesity was visually assessed by estimating the percentage leaf area occupied by fungal colonies.
(§4) Control efficacy of the disease achieved by the sprayed test compound was calculated relative to the amount of disease seen in the control.

[7] = tested on: Erysiphe graminis tritici; experiment: Powdery mildew in wheat (Table 5)
Excerpt: as §1, §2, §3, §4

[8] = Barley 17.9.96, dose 500 (unit not given)
[9] = Barley 17.9.96, dose 2000 (unit not given)
[10] = Wheat 7.8.96, dose 500 (unit not given)
[11] = Wheat 7.8.96, dose 2000 (unit not given)

CCCCC(C)OC(=O)CC(C)NC(=O)c1ccccc1NC (stereo not drawn) [compound 52, D,L N-2-methylaminobenzoyl-3-aminobutyric acid 1-methylpentyl ester]
Control efficacy (%) 7d (Phytophthora infestans [1]): 75%
Control efficacy (%) 7d [2]: 97%

CC(N)CC(=O)O (racemic) [DL-β-aminobutyric acid]
protection of tomato leaves (Phytophthora infestans [3]): protected those leaves

Cc1ccc(C(=O)NC(C)CC(=O)OCCC(Cl)(Cl)Cl)cc1 (stereo not drawn) [compound 36, D,L N-4-methylbenzoyl-3-aminobutyric acid 2-(trichloromethyl)ethyl ester]
Control efficacy (%) 7d (Phytophthora infestans [1]): 81%
Control efficacy (%) 7d [2]: 82%

CC(C)C[C@@H](N)C(=O)O [D-leucine, D-and DL leucine]
reduction of scab in apple (Venturia inaequalis): reduce scab

NC(CO)C(=O)O (racemic) [DL-serine]
behaviour as chemotherapeutant against the fungus on cucumber (cladosporium cucumerinum): behaved as chemothrerpeutants

N[C@H](CO)C(=O)O [D-serine]
behaviour as chemotherapeutant against the fungus on cucumber (cladosporium cucumerinum): behaved as chemothrerpeutants

CC(CC(=O)OC1CCCCC1)NC(=O)c1ccccc1 (stereo not drawn) [compound 38, D,L N-benzoyl-3-aminobutyric acid cyclohexyl ester]
Control efficacy (%) 7d (Phytophthora infestans [1]): 78%
Control efficacy (%) 7d [2]: 80%
Control efficacy (%) 7d [4]: 100%

CC(CC(=O)OCCCl)NC(=O)c1ccc(Cl)cc1 (racemic) [Example 6, D,L-N-4-chlorobenzoyl-3-aminobutyric acid 2-chloro-ethyl ester]
Control Efficacy % (Phytophthora infestans [5]; Tomato, 12.7.96, 500 ppm): 76%
Control Efficacy % (Phytophthora infestans [5]; Tomato, 12.7.96, 2000 ppm): 79%
Control Efficacy % (Phytophthora infestans [5]; Tomato, 14.8/96, 2000 ppm): 67%
Control Efficacy % (Phytophthora infestans [6]; Potato, 14.8.96, 2000 ppm): 88%
Control Efficacy % (Phytophthora infestans [6]; Potato, 17.7.096, 500 ppm): 75%
Control Efficacy % (Phytophthora infestans [6]; Potato, 17.7.096, 2000 ppm): 50%
Control Efficacy % (Erysiphe graminis hordei; [8]): 62%
Control Efficacy % (Erysiphe graminis hordei; [9]): 75%

CCCCCCCOC(=O)CC(C)NS(=O)(=O)c1ccc(Cl)cc1 (stereo not drawn) [compound 40, D,L N-4-chlorobenzenesulfonyl-3-aminobutyric acid heptyl ester]
Control efficacy (%) 7d [2]: 82%

C[C@@H](O)[C@H](N)C(=O)O (racemic) [DL-threonine]
behaviour as chemotherapeutant against the fungus on cucumber (cladosporium cucumerinum): behaved as chemothrerpeutants

C[C@@H](N)C(=O)O [D-alaninie]
reduction of scab in apple (Venturia inaequalis): reduce scab

CCC(N)C(=O)O (racemic) [DL-α-aminobutyric acid]
reduction of scab in apple (Venturia inaequalis): reduce scab

CC(C)CC(N)C(=O)O (stereo not drawn) [DL leucine]
reduction of scab in apple (Venturia inaequalis): reduce scab

N-β-methyl benzoyl-3 aminobutyric acid-sec. butyl ester [Example 4]
Control Efficacy % (Phytophthora infestans [5]; Tomato, 12.7.96, 2000 ppm): 85%
Control Efficacy % (Phytophthora infestans [5]; Tomato, 14.8/96, 2000 ppm): 90%
Control Efficacy % [7, 10]: 96%
Control Efficacy % [7, 11]: 96%
Control Efficacy % (Phytophthora infestans [6]; Potato, 14.8.96, 2000 ppm): 77%
Control Efficacy % (Phytophthora infestans [6]; Potato, 17.7.096, 500 ppm): 56%
Control Efficacy % (Phytophthora infestans [6]; Potato, 17.7.096, 2000 ppm): 75%
Control Efficacy % (Phytophthora infestans [6]; Potato, 26.7.96, 500 ppm): 23%
Control Efficacy % (Phytophthora infestans [6]; Potato, 26.7.96, 2000 ppm): 42%
Control Efficacy % (Erysiphe graminis hordei; [8]): 87%
Control Efficacy % (Erysiphe graminis hordei; [9]): 95%

CCCCCCCCOC(=O)CC(C)NC(=O)c1ccc(Cl)c(Cl)c1 (racemic) [Example 5, D,L-N-3,4-dichlorobenzoyl-3-aminobutyric acid n-octyl ester]
Control Efficacy % [7, 10]: 76%
Control Efficacy % [7, 11]: 92%
Control Efficacy % (Erysiphe graminis hordei; [8]): 82%
Control Efficacy % (Erysiphe graminis hordei; [9]): 85%

Cc1ccc(C(=O)NC(C)CC(=O)OC2CCCCC2)cc1 (stereo not drawn) [compound 37, D,L N-4-methylbenzoyl-3-aminobutyric acid cyclohexyl ester]
Control efficacy (%) 7d (Phytophthora infestans [1]): 78%
Control efficacy (%) 7d [2]: 75%

CC(CC(=O)OC1CCCCC1)NS(=O)(=O)c1ccccc1 (stereo not drawn) [compound 39, D,L N-benzenesulfonyl-3-aminobutyric acid cyclohexyl ester]
Control efficacy (%) 7d (Phytophthora infestans [1]): 75%
Control efficacy (%) 7d [2]: 70%

D,L-N-β-methyl benzoyl-3-aminobutyric acid n-octyl ester [Example 3]
Control Efficacy % (Phytophthora infestans [5]; Tomato, 12.7.96, 2000 ppm): 70%
Control Efficacy % (Phytophthora infestans [5]; Tomato, 14.8/96, 2000 ppm): 93%
Control Efficacy % (Phytophthora infestans [6]; Potato, 14.8.96, 2000 ppm): 88%
Control Efficacy % (Phytophthora infestans [6]; Potato, 17.7.096, 500 ppm): 70%
Control Efficacy % (Phytophthora infestans [6]; Potato, 17.7.096, 2000 ppm): 81%
Control Efficacy % (Phytophthora infestans [6]; Potato, 26.7.96, 500 ppm): 85%
Control Efficacy % (Phytophthora infestans [6]; Potato, 26.7.96, 2000 ppm): 92%

CCCOC(=O)CC(C)NS(=O)(=O)c1ccc(Cl)cc1 (stereo not drawn) [compound 35, D,L N-4-chlorobenzenesulfonyl-3-aminobutyric acid propyl ester]
Control efficacy (%) 7d (Phytophthora infestans [1]): 81%
Control efficacy (%) 7d [2]: 77%
Control efficacy (%) 7d [4]: 81%

CC(CC(=O)NCc1ccccc1)NS(=O)(=O)c1ccccc1 (racemic) [Example 1, D,L-N-benzenesulfonyl-3-amino N-benzyl butyramide]
Control Efficacy % (Phytophthora infestans [5]; Tomato, 12.7.96, 500 ppm): 82%
Control Efficacy % (Phytophthora infestans [5]; Tomato, 12.7.96, 2000 ppm): 97%
Control Efficacy % (Phytophthora infestans [5]; Tomato, 14.8/96, 2000 ppm): 90%
Control Efficacy % (Phytophthora infestans [6]; Potato, 14.8.96, 2000 ppm): 72%
Control Efficacy % (Phytophthora infestans [6]; Potato, 17.7.096, 500 ppm): 57%
Control Efficacy % (Phytophthora infestans [6]; Potato, 17.7.096, 2000 ppm): 77%
Control Efficacy % (Phytophthora infestans [6]; Potato, 26.7.96, 500 ppm): 49%
Control Efficacy % (Phytophthora infestans [6]; Potato, 26.7.96, 2000 ppm): 79%
Control Efficacy % (Erysiphe graminis hordei; [8]): 25%
Control Efficacy % (Erysiphe graminis hordei; [9]): 75%
